Results: patent publication US12043632B2, “6-heteroaryloxy benzimidazoles and azabenzimidazoles as JAK2 inhibitors” (Ajax Therapeutics, Inc., priority 2020, dated 2024)

biological target: T1, JAK2 (JH1domain-catalytic, Y1007F,Y1008F) kinase (Homo sapiens, UniProt O60674, Y1007F/Y1008F); experiment: JAK2 JH1 Domain Binding Assay; conditions: qPCR readout
T1 construct: JAK2 (JH1domain-catalytic, Y1007F,Y1008F) kinase was expressed as N-terminal fusion; made in house; host or cells: transiently transfected HEK293 cells
T1 sequence (O60674 849-1124 Y1007F/Y1008F limits assumed): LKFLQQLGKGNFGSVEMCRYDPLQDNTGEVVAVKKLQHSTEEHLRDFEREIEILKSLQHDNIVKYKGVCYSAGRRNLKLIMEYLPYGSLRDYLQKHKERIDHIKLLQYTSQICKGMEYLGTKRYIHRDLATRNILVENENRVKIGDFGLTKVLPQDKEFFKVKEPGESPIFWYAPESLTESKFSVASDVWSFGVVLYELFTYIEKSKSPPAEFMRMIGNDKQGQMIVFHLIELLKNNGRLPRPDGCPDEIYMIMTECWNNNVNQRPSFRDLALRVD

Row | Structure (SMILES) | Kd [µM]
1 | COCCOc1ccc2c(Oc3cnc4nc(Nc5cc(C(F)(F)F)cn(C)c5=O)n(C)c4c3Cl)cnn2c1 [Example I-355, 3-((7-chloro-6-((6-(2-methoxyethoxy)pyrazolo[1,5-a]pyridin-3-yl)oxy)-1-methyl-1H-imidazo[4,5-b]pyridin-2-yl)amino)-1-methyl-5-(trifluoromethyl)pyridin-2(1H)-one] | < 0.01
2 | CNc1cn2ncc(Oc3cnc4nc(Nc5cc(CN6CC7(COC7)C6)cc(C(F)(F)F)c5)n(C)c4c3Cl)c2cn1 [Example I-356, N-(3-((2-oxa-6-azaspiro[3.3]heptan-6-yl)methyl)-5-(trifluoromethyl)phenyl)-7-chloro-1-methyl-6-((6-(methylamino)pyrazolo[1,5-a]pyrazin-3-yl)oxy)-1H-imidazo[4,5-b]pyridin-2-amine] | 0.01 to 0.05
3 | CNc1cn2ncc(Oc3cnc4nc(Nc5cc(CN6CCC6)cc(C(F)(F)F)c5)n(C)c4c3Cl)c2cn1 [Example I-357, N-(3-(azetidin-1-ylmethyl)-5-(trifluoromethyl)phenyl)-7-chloro-1-methyl-6-((6-(methylamino)pyrazolo[1,5-a]pyrazin-3-yl)oxy)-1H-imidazo[4,5-b]pyridin-2-amine] | 0.05 to 1
4 | CNc1cn2ncc(Oc3cnc4nc(Nc5cc(CN6CC(F)C6)cc(C(F)(F)F)c5)n(C)c4c3Cl)c2cn1 [Example I-358, 7-chloro-N-(3-((3-fluoroazetidin-1-yl)methyl)-5-(trifluoromethyl)phenyl)-1-methyl-6-((6-(methylamino)pyrazolo[1,5-a]pyrazin-3-yl)oxy)-1H-imidazo[4,5-b]pyridin-2-amine] | 0.05 to 1
5 | CNc1cn2ncc(Oc3cnc4nc(Nc5ccc(CN6CC[C@H](OC)C6)c(C(F)(F)F)c5)n(C)c4c3Cl)c2cn1 [Example I-360, (S)-7-chloro-N-(4-((3-methoxypyrrolidin-1-yl)methyl)-3-(trifluoromethyl)phenyl)-1-methyl-6-((6-(methylamino)pyrazolo[1,5-a]pyrazin-3-yl)oxy)-1H-imidazo[4,5-b]pyridin-2-amine] | 0.05 to 1
6 | CNc1cn2ncc(Oc3cnc4nc(Nc5ccc(CN6CC[C@@H](OC)C6)c(C(F)(F)F)c5)n(C)c4c3Cl)c2cn1 [Example I-361, (R)-7-chloro-N-(4-((3-methoxypyrrolidin-1-yl)methyl)-3-(trifluoromethyl)phenyl)-1-methyl-6-((6-(methylamino)pyrazolo[1,5-a]pyrazin-3-yl)oxy)-1H-imidazo[4,5-b]pyridin-2-amine] | 0.05 to 1
7 | Cn1c(Nc2cc3n(n2)CCCC3(F)F)nc2ncc(Oc3cnn4ccncc34)c(C#N)c21 [Example I-362, 2-((4,4-difluoro-4,5,6,7-tetrahydropyrazolo[1,5-a]pyridin-2-yl)amino)-1-methyl-6-(pyrazolo[1,5-a]pyrazin-3-yloxy)-1H-imidazo[4,5-b]pyridine-7-carbonitrile] | 0.01 to 0.05
8 | COc1cn2ncc(Oc3cnc4nc(Nc5cc(C(F)(F)F)cn(C)c5=O)n(C)c4c3Cl)c2cn1 [Example I-363, 3-((7-chloro-6-((6-methoxypyrazolo[1,5-a]pyrazin-3-yl)oxy)-1-methyl-1H-imidazo[4,5-b]pyridin-2-yl)amino)-1-methyl-5-(trifluoromethyl)pyridin-2(1H)-one] | 0.01 to 0.05
9 | COc1cn2ncc(Oc3cnc4nc(Nc5cc(C(F)(F)F)cn(C)c5=O)n(C)c4c3C#N)c2cn1 [Example I-364, 6-((6-methoxypyrazolo[1,5-a]pyrazin-3-yl)oxy)-1-methyl-2-((1-methyl-2-oxo-5-(trifluoromethyl)-1,2-dihydropyridin-3-yl)amino)-1H-imidazo[4,5-b]pyridine-7-carbonitrile] | 0.01 to 0.05
10 | COCCOc1cn2ncc(Oc3cnc4nc(Nc5cc(C(F)(F)F)cn(C)c5=O)n(C)c4c3Cl)c2cn1 [Example I-365, 3-((7-chloro-6-((6-(2-methoxyethoxy)pyrazolo[1,5-a]pyrazin-3-yl)oxy)-1-methyl-1H-imidazo[4,5-b]pyridin-2-yl)amino)-1-methyl-5-(trifluoromethyl)pyridin-2(1H)-one] | < 0.01
11 | Cn1c(Nc2cc3n(n2)CCCC3(F)F)nc2ncc(Oc3cnn4ccccc34)c(C#N)c21 [Example I-366, 2-((4,4-difluoro-4,5,6,7-tetrahydropyrazolo[1,5-a]pyridin-2-yl)amino)-1-methyl-6-(pyrazolo[1,5-a]pyridin-3-yloxy)-1H-imidazo[4,5-b]pyridine-7-carbonitrile] | < 0.01
12 | COCCOc1cn2ncc(Oc3cnc4nc(Nc5cc(C(F)(F)F)cn(C)c5=O)n(C)c4c3C#N)c2cn1 [Example I-367, 6-((6-(2-methoxyethoxy)pyrazolo[1,5-a]pyrazin-3-yl)oxy)-1-methyl-2-((1-methyl-2-oxo-5-(trifluoromethyl)-1,2-dihydropyridin-3-yl)amino)-1H-imidazo[4,5-b]pyridine-7-carbonitrile] | < 0.01
13 | CN(C)c1n[nH]c2ncc(Oc3cnc4nc(Nc5cc(C(F)(F)F)cn(C)c5=O)n(C)c4c3C#N)cc12 [Example I-368, 6-((3-(dimethylamino)-1H-pyrazolo[3,4-b]pyridin-5-yl)oxy)-1-methyl-2-((1-methyl-2-oxo-5-(trifluoromethyl)-1,2-dihydropyridin-3-yl)amino)-1H-imidazo[4,5-b]pyridine-7-carbonitrile] | < 0.01
14 | COCCOc1ccc2c(Oc3cnc4nc(Nc5cc6n(n5)CCCC6(F)F)n(C)c4c3C#N)cnn2c1 [Example I-369, 2-((4,4-difluoro-4,5,6,7-tetrahydropyrazolo[1,5-a]pyridin-2-yl)amino)-6-((6-(2-methoxyethoxy)pyrazolo[1,5-a]pyridin-3-yl)oxy)-1-methyl-1H-imidazo[4,5-b]pyridine-7-carbonitrile] | < 0.01
15 | Cn1c(Nc2cc3n(n2)CCCC3(F)F)nc2ncc(Oc3cnc4[nH]ncc4c3)c(C#N)c21 [Example I-370, 6-((1H-pyrazolo[3,4-b]pyridin-5-yl)oxy)-2-((4,4-difluoro-4,5,6,7-tetrahydropyrazolo[1,5-a]pyridin-2-yl)amino)-1-methyl-1H-imidazo[4,5-b]pyridine-7-carbonitrile] | < 0.01
16 | CNc1nccn2ncc(Oc3cnc4nc(Nc5cc6n(n5)CCCC6(F)F)n(C)c4c3C#N)c12 [Example I-373, 2-((4,4-difluoro-4,5,6,7-tetrahydropyrazolo[1,5-a]pyridin-2-yl)amino)-1-methyl-6-((4-(methylamino)pyrazolo[1,5-a]pyrazin-3-yl)oxy)-1H-imidazo[4,5-b]pyridine-7-carbonitrile] | < 0.01
17 | COc1ccc2c(Oc3cnc4nc(Nc5cc6n(n5)CCCC6(F)F)n(C)c4c3C#N)cnn2c1 [Example I-374, 2-((4,4-difluoro-4,5,6,7-tetrahydropyrazolo[1,5-a]pyridin-2-yl)amino)-6-((6-methoxypyrazolo[1,5-a]pyridin-3-yl)oxy)-1-methyl-1H-imidazo[4,5-b]pyridine-7-carbonitrile] | < 0.01
18 | COCCOc1cn2ncc(Oc3cnc4nc(Nc5cc(C6CC6)cn(C)c5=O)n(C)c4c3Cl)c2cn1 [Example I-375, 3-((7-chloro-6-((6-(2-methoxyethoxy)pyrazolo[1,5-a]pyrazin-3-yl)oxy)-1-methyl-1H-imidazo[4,5-b]pyridin-2-yl)amino)-5-cyclopropyl-1-methylpyridin-2(1H)-one] | < 0.01
19 | Cn1cc(C(F)(F)F)cc(Nc2nc3ncc(Oc4cnn5cc(OCCN6CCOCC6)ncc45)c(Cl)c3n2C)c1=O [Example I-376, 3-((7-chloro-1-methyl-6-((6-(2-morpholinoethoxy)pyrazolo[1,5-a]pyrazin-3-yl)oxy)-1H-imidazo[4,5-b]pyridin-2-yl)amino)-1-methyl-5-(trifluoromethyl)pyridin-2(1H)-one] | < 0.01
20 | Cn1cc(C(F)(F)F)cc(Nc2nc3ncc(Oc4cnn5cc(OCCN6CCOCC6)ncc45)c(C#N)c3n2C)c1=O [Example I-377, 1-methyl-2-((1-methyl-2-oxo-5-(trifluoromethyl)-1,2-dihydropyridin-3-yl)amino)-6-((6-(2-morpholinoethoxy)pyrazolo[1,5-a]pyrazin-3-yl)oxy)-1H-imidazo[4,5-b]pyridine-7-carbonitrile] | < 0.01
21 | COc1n[nH]c2ncc(Oc3cnc4nc(Nc5cc6n(n5)CCCC6(F)F)n(C)c4c3C#N)cc12 [Example I-378, 2-((4,4-difluoro-4,5,6,7-tetrahydropyrazolo[1,5-a]pyridin-2-yl)amino)-6-((3-methoxy-1H-pyrazolo[3,4-b]pyridin-5-yl)oxy)-1-methyl-1H-imidazo[4,5-b]pyridine-7-carbonitrile] | < 0.01
22 | CNc1cc(F)c2c(Oc3cnc4nc(Nc5cc(C(F)(F)F)cn(C)c5=O)n(C)c4c3C#N)cnn2c1 [Example I-395, 6-((4-fluoro-6-(methylamino)pyrazolo[1,5-a]pyridin-3-yl)oxy)-1-methyl-2-((1-methyl-2-oxo-5-(trifluoromethyl)-1,2-dihydropyridin-3-yl)amino)-1H-imidazo[4,5-b]pyridine-7-carbonitrile] | < 0.01
23 | CNc1cn2ncc(Oc3cnc4nc(Nc5cc(C(F)(F)F)cn(C)c5=O)n(C)c4c3C#N)c2c(C)n1 [Example I-396, 1-methyl-2-((1-methyl-2-oxo-5-(trifluoromethyl)-1,2-dihydropyridin-3-yl)amino)-6-((4-methyl-6-(methylamino)pyrazolo[1,5-a]pyrazin-3-yl)oxy)-1H-imidazo[4,5-b]pyridine-7-carbonitrile] | 0.01 to 0.05
24 | Cn1cc(C(F)(F)F)cc(Nc2nc3ncc(Oc4cnn5cc(OCCO)ncc45)c(Cl)c3n2C)c1=O [Example I-397, 3-((7-chloro-6-((6-(2-hydroxyethoxy)pyrazolo[1,5-a]pyrazin-3-yl)oxy)-1-methyl-1H-imidazo[4,5-b]pyridin-2-yl)amino)-1-methyl-5-(trifluoromethyl)pyridin-2(1H)-one] | < 0.01
25 | Cn1c(Nc2cc3n(n2)CCCC3(C)C)nc2ncc(Oc3cnn4cc(OCCO)ncc34)c(Cl)c21 [Example I-398, 2-((3-((7-chloro-2-((4,4-dimethyl-4,5,6,7-tetrahydropyrazolo[1,5-a]pyridin-2-yl)amino)-1-methyl-1H-imidazo[4,5-b]pyridin-6-yl)oxy)pyrazolo[1,5-a]pyrazin-6-yl)oxy)ethan-1-ol] | < 0.01
